The values below come from patent US9745328B2, “Flap modulators” (JANSSEN PHARMACEUTICA NV, priority 2013, dated 2017).

Counter-ions that a name gives are not always drawn.

What is called Ki is the dissociation constant of the complex between target and ligand, obtained from inhibition or displacement.

One assay deals with human FLAP (Homo sapiens (Human), UniProt P20292). The experiment in a line: FLAP binding assay (HTRF format). The conditions noted are these: Table 6 (additional runs), human FLAP wild type. As for the experimental part: The ability of the compounds of the present invention to treat a FLAP-mediated disease and/or disorder, or associated symptoms or complications thereof, was determined using the following procedures. Binding assay data represent the average value obtained from two different assay plates, with samples run in duplicate on each plate. Human whole blood assay data represent a single replicate on an assay plate using whole blood from at least one healthy donor.
human FLAP, sequence (P20292 whole entry): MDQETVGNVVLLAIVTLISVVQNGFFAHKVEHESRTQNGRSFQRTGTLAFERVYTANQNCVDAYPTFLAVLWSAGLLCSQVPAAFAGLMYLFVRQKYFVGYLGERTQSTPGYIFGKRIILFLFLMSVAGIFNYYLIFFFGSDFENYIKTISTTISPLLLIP
Data are expressed as a HTRF ratio.
On the technique in general: In TR-FRET formats the signal depends on donor and acceptor labels being close together.
In the case of `Nc1cnc(-c2ccc(-c3ccccc3Sc3nccc(N)n3)cc2F)cn1` [Example 216, 2-{1,4′-(5-Aminopyrazin-2-yl)-3′-fluorobiphenyl-2-yl]sulfanyl}pyrimidin-4-amine hydrochloride], the Ki amounted to 2.2 nM. `Nc1ncc(-c2ccc(-c3ccccc3S(=O)(=O)N3CC(O)(C(F)(F)F)C3)cc2F)cn1` [Example 315] displayed a Ki of 1.3 nM. In the case of `Nc1cnc(-c2ccc(-c3ccccc3S(=O)(=O)N3CCN(C(=O)C4CC4)CC3)cc2F)cn1` [Example 58, 5-(2′-{[4-(Cyclopropylcarbonyl)piperazin-1-yl]sulfonyl}-3-fluoroblphenyl-4-yl)pyrazin-2-amine], affinity was put at a Ki of 4.6 nM.

`CC(C)N(CCO)S(=O)(=O)c1ccccc1-c1ccc(-c2cnc(N)nc2)c(F)c1` [Example 261, 4′-(2-Aminopyrimidin-5-yl)-3′-fluoro-N-(2-hydroxyethyl)-N-(1-methylethyl)biphenyl-2-sulfonamide] returned a Ki of 5.6 nM. `Nc1ncc(-c2ccc(-c3ccccc3S(=O)(=O)N[C@H]3CCCC[C@@H]3O)cc2F)cn1` (racemic) [Example 260, racemic (trans) 4′-(2-Aminopyrimidin-5-yl)-3′-fluoro-N-[(trans)-2-hydroxycyclohexyl]biphenyl-2-sulfonamide] yielded a Ki of 8.9 nM.

Consider `CS(=O)(=O)Nc1ccccc1-c1ccc(-c2cnc(N)cn2)c(F)c1` [Example 2, N-[4′-(5-Aminopyrazin-2-yl)-3′-fluorobiphenyl-2-yl]methanesulfonamide], for which the Ki stood at 178 nM. Compound `Nc1cnc(-c2ccc(-c3ccccc3S(=O)(=O)N[C@H](c3ccccc3)C(F)(F)F)cc2F)cn1` [Example 18] showed a Ki of 1.8 nM. Regarding `Nc1ccc(-c2ccc(-c3ccccc3S(=O)(=O)N3CCC(CCO)CC3)cc2F)cn1` [Example 359], the Ki turned out to be 4.3 nM. On the same count and under the same terms, then `Nc1cnc(-c2ccc(-c3ccccc3S(=O)(=O)N3CCc4[nH]ncc4C3)cc2F)cn1` [Example 128, 5-[3-Fluoro-2′-(1,4,6,7-tetrahydro-5H-pyrazolo[4,3-c]pyridin-5-ylsulfonyl)biphenyl-4-yl]pyrazin-2-amine], with 0.8 nM; and `Nc1cnc(-c2ccc(-c3ccccc3S(=O)(=O)N3CCOCC3)cc2F)cn1` [Example 44, 5-[3-Fluoro-2′-(morpholin-4-ylsulfonyl)biphenyl-4-yl]pyrazin-2-amine], with 6.5 nM. Regarding `CC(C)(C)NS(=O)(=O)c1ccccc1-c1ccc(-c2cnc3[nH]ccc3n2)c(F)c1` [Example 371, N-tert-Butyl-3′-fluoro-4′-(5H-pyrrolo[2,3-b]pyrazin-2-yl)biphenyl-2-sulfonamide], the affinity, expressed as Ki, was 0.7 nM. In turn, `Nc1ccc(-c2ccc(-c3ccccc3S(=O)(=O)NC3CCCCC3)cc2F)cn1` [Example 346, 4′-(6-Aminopyridin-3-yl)-N-cyclohexyl-3′-fluoro-[1,1′-biphenyl]-2-sulfonamide] displayed a Ki of 4.5 nM. On the same count and under the same terms, then `O=S1(=O)CCN(S(=O)(=O)c2ccccc2-c2ccc(-c3cnc4[nH]ccc4n3)c(F)c2)CC1` [Example 382, 2-{2′-[(1,1-Dioxidothiomorpholin-4-yl)sulfonyl]-3-fluorobiphenyl-4-yl}-5H-pyrrolo[2,3-b]pyrazine], with 0.5 nM; and `CC(C)CNS(=O)(=O)c1ccccc1-c1ccc(-c2cnc(N)cn2)c(F)c1` [Example 7, 4′-(5-Aminopyrazin-2-yl)-3′-fluoro-N-(2-methylpropyl)biphenyl-2-sulfonamide], with 0.8 nM. With `Nc1cnc(-c2ccc(-c3ccccc3S(=O)(=O)NC3(CO)CCCC3)cc2F)cn1` [Example 179], the inhibitory constant (Ki) amounted to 0.4 nM.

As to `CC1(NS(=O)(=O)c2ccccc2-c2ccc(-c3cnc(N)cn3)c(F)c2)CCC1` [Example 11, 4′-(5-Aminopyrazin-2-yl)-3′-fluoro-N-(1-methylcyclobutyl)biphenyl-2-sulfonamide], the Ki is 1.6 nM. `Nc1cnc(-c2ccc(-c3ccccc3S(=O)(=O)N[C@@H]3CCCC[C@@H]3CO)cc2F)cn1` (racemic) [Example 122, racemic (cis)-4′-(5-Aminopyrazin-2-yl)-3′-fluoro-N-[2-(hydroxymethyl)cyclohexyl]biphenyl-2-sulfonamide]: the Ki came out at 0.7 nM. Take `CC(C)CNS(=O)(=O)c1ccccc1-c1ccc(-c2cnc(N)nc2)c(F)c1` [Example 294, 4′-(2-Aminopyrimidin-5-yl)-3′-fluoro-N-(2-methylpropyl)biphenyl-2-sulfonamide trifiuoroacetic acid salt]: the inhibition constant Ki amounted to 2.4 nM. Turning to `Nc1ncc(-c2ccc(-c3ccccc3S(=O)(=O)N3CCCC3)cc2F)cn1` [Example 298, 5-[3-Fluoro-2′-(pyrrolidin-1-ylsulfonyl)biphenyl-4-yl]pyrimidin-2-amine trifluoroacetic acid salt], affinity was put at a Ki of 80.6 nM. Same read-out and setting: the same measure for `CS(=O)(=O)c1ccccc1-c1ccc(-c2cnc(N)cn2)c(F)c1` [Example 1, 5-(3-Fluoro-2′-(methylsulfonyl)-[1,1′-biphenyl]-4-yl)pyrazin-2-amine]: 352 nM; for `CNS(=O)(=O)c1cc(C(F)(F)F)ccc1-c1ccc(-c2cnc(N)nc2)c(F)c1` [Example 325, 4′-(2-aminopyrimidin-5-yl)-3′-fluoro-N-methyl-4-(trifluoromethyl)biphenyl-2-sulfonamide]: 4.7 nM; for `Nc1cnc(-c2ccc(-c3ccccc3S(=O)(=O)N3CCCC(CCO)C3)cc2F)cn1` (racemic) [Example 71, racemic 2-(1-{[4′-(5-Aminopyrazin-2-yl)-3′-fluorobiphenyl-2-yl]sulfonyl}piperidin-3-yl)ethanol]: 1.9 nM. `CCN1CCCC[C@@H](NS(=O)(=O)c2ccccc2-c2ccc(-c3cnc(N)cn3)c(F)c2)C1=O` [Example 27] showed a Ki of 26.3 nM. The same measure, in the same setting: then `Nc1cnc(-c2ccc(-c3ccccc3S(=O)(=O)NCC3CCC3)cc2F)cn1` [Example 9, 4′-(5-Aminopyrazin-2-yl)-N-(cyclobutylmethyl)-3′-fluorobiphenyl-2-sulfonamide], with 1.5 nM. `CCN(CC)S(=O)(=O)c1ccccc1-c1ccc(-c2cnc(N)cn2)c(F)c1` [Example 47, 4′-(5-Aminopyrazin-2-yl)-N,N-diethyl-3′-fluorobiphenyl-2-sulfonamide]: the Ki is 1.6 nM.

Staying with this assay, now noted: human FLAP wild type, Table 6 (additional runs).
As to `Nc1cnc(-c2ccc(-c3ccccc3Cl)cc2F)cn1` [Example 469, 5-(2′-Chloro-3-fluorobiphenyl-4-yl)pyrazin-2-amine], the inhibition constant (Ki) was determined as 179 nM.

`CC(C)(C)NS(=O)(=O)c1ccccc1-c1ccc(-c2cnc(N)c(Cl)c2)c(F)c1` [Example 451, 4′-(6-Amino-5-chloropyridin-3-yl)-N-tert-butyl-3′-fluorobiphenyl-2-sulfonamide trifluoroacetic acid salt] came in with a Ki of 2.4 nM. On the same count and under the same terms, the same measure for `CC(C)(C)NS(=O)(=O)c1ccccc1-c1ccc(-c2cnc(N)nc2)c(F)c1F` [Example 466, 4′-(2-Aminopyrimidin-5-yl)-N-tert-butyl-2′,3′-difluorobipenyl-2-sulfonamide trifluoroacetic acid salt]: roughly 254 nM; for `C[C@H]1CN(C(=O)c2ccccc2-c2ccc(-c3cnc(N)cn3)c(F)c2)CCO1` [Example 776, 5-(3-Fluoro-2′-{[(2S)-2-methylmorpholin-4-yl]carbonyl}biphenyl-4-yl)pyrazin-2-amine]: 150 nM; for `Nc1cnc(-c2ccc(-c3ccccc3Oc3nccc(N)n3)cc2F)cn1` [Example 528, 2-{[4′-(5-Aminopyrazin-2-yl)-3′-fluorobiphenyl-2-yl]oxy}pyrimidin-4-amine]: 5.5 nM. With `CC(C)(C)NS(=O)(=O)c1ccccc1-c1ccc(-c2nnc(N)s2)c(F)c1` [Example 438, 4′-(5-amino-1,3,4-thiadiazol-2-yl)-N-(tert-butyl)-3′-fluoro-[1,1′-biphenyl]-2-sulfonamide], the affinity corresponds to a Ki of 0.7 nM. For `Nc1cnc(-c2ccc(-c3ccccc3C(F)(F)F)cc2F)cn1` [Example 472, 5-[3-Fluoro-2′-(trifluoromethyl)biphenyl-4-yl]pyrazin-2-amine], the affinity corresponds to a Ki of 136 nM. `C[C@H]1COCCN1C(=O)c1ccccc1-c1ccc(-c2cnc(N)cn2)c(F)c1` [Example 774, 5-(3-Fluoro-2′-{[(3S)-3-methylmorpholin-4-yl]carbonyl}biphenyl-4-yl)pyrazin-2-amine]: the Ki was found to be 1300 nM.

Compound `N#Cc1ccccc1-c1ccc(-c2cnc(N)cn2)c(F)c1` [Example 701, 4′-(5-Aminopyrazin-2-yl)-3′-fluorobiphenyl-2-carbonitrile] had a Ki of 132 nM.

`Nc1cnc(-c2ccc(-c3ccccc3OCC(=O)O)cc2F)cn1` [Example 481, {[4′-(5-Aminopyrazin-2-yl)-3′-fluorobiphenyl-2-yl]oxy}acetic acid] had a Ki of 1910 nM. In turn, `CC(C)(C)NS(=O)(=O)c1ccccc1-c1ccc(-c2ccc(N)cn2)c(F)c1` [Example 427, 4′-(5-Aminepyridin-2-yl)-N-tert-butyl-3′-fluoro-biphenyl-2-sulfonamide] displayed a Ki of 43.9 nM. In turn, `Nc1cnc(-c2ccc(-c3ccccc3Oc3ncccn3)cc2F)cn1` [Example 526, 5-[3-Fluoro-2′-(pyrimidin-2-yloxy)biphenyl-4-yl]pyrazin-2-amine] showed a Ki of 8.3 nM. Regarding `Nc1cnc(-c2ccc(-c3ccccc3Oc3ccnc(N)n3)cc2F)cn1` [Example 533, 4-{[4′-(5-Aminopyrazin-2-yl)-3′-fluorobiphenyl-2-yl]oxy}pyrimidin-2-amine], the Ki stood at 4.5 nM. In the case of `Nc1ccnc(Oc2ccccc2-c2ccc(-c3cnc4[nH]ccc4c3)c(F)c2)n1` [Example 524, 2-{[3′-Fluoro-4′-(1H-pyrrolo[2,3-b]pyridin-5-yl)biphenyl-2-yl]oxy}pyrimidin-4-amine], the Ki turned out to be 0.7 nM. The same measure, in the same setting: then `CC(C)(C)NS(=O)(=O)c1ccccc1-c1ccc(-c2cnc(N)c(Br)n2)c(F)c1` [Example 442, 4′-(5-Amino-6-bromopyrazin-2-yl)-N-tert-butyl-3′-fluorobiphenyl-2-sulfonamide], with 0.9 nM.

The same assay, now with this note: human FLAP wild type, a calculated value of 0.000 indicates Ki less than 1 nM.
Take `O=S1(=O)CCN(S(=O)(=O)c2ccccc2-c2ccc(-c3cnc4[nH]ccc4n3)c(F)c2)CC1` [Example 382, 2-{2′-[(1,1-Dioxidothiomorpholin-4-yl)sulfonyl]-3-fluorobiphenyl-4-yl}-5H-pyrrolo[2,3-b]pyrazine]: the Ki was less than 1 nM. With `Nc1cnc(-c2ccc(-c3ccccc3S(=O)(=O)NC3(CO)CCCC3)cc2F)cn1` [Example 179], the Ki is less than 1 nM.
